Literature values in publication PMC7904743, “WIDOCK: a reactive docking protocol for virtual screening of covalent inhibitors” (Journal of Computer-Aided Molecular Design, 2021).
Read-outs that look alike come from different tables or passages of the source.

Tests used:
OTUB2 = conditions: experimental actives if % labeling higher than 50%, cited from earlier work
[1] = thiol reactivity, cited from earlier work
NUDT7 = conditions: protein labeling at 200 μM; experimental actives if % labeling higher than 50%; cited from earlier work
[2] = natural log of average rate constant k
[3] = natural logarithm of average rate constant
[4] = natural log of average kinetic rate constant
[5] = natural log of average rate constant

| SMILES | OTUB2 % labeling (OTUB2) [%] | ln(avg k) [1, 2] | ln(avg k) [1, 3] | NUDT7 % labeling (NUDT7) [%] | OTUB2 % labeling (OTUB2; OTUB2 protein labeling) [%] | ln(avg k) [1, 4] | ln(avg k) [1, 5] |
| --- | --- | --- | --- | --- | --- | --- | --- |
| CC(C)(O)CNC(=O)CCl [PCM-0102554, CC(C)(O)CNC(=O)CCl] | 0 | -16.972 | -16.972 | 0 | – | – | – |
| O=C(CCl)NC(=O)NCc1ccccc1 [PCM-0102122, O=C(CCl)NC(=O)NCc1ccccc1] | 0 | -16.001 | -16.001 | 0 | – | – | – |
| CCOC(=O)N1CCN(C(=O)CCl)CC1 [PCM-0102861, CCOC(=O)N1CCN(C(=O)CCl)CC1] | – | – | – | 0 | 0 | -17.162 | -17.162 |
| CN(Cc1ccsc1)C(=O)CCl [PCM-0102865, CN(Cc1ccsc1)C(=O)CCl] | – | – | – | 9 | 0 | -16.224 | -16.224 |
| O=C(CCl)NNC(=O)c1ccco1 [PCM-0102985, O=C(CCl)NNC(=O)c1ccco1] | – | – | – | 0 | 27 | -17.545 | -17.545 |
| O=C(CCl)Nc1nc(-c2ccc(F)cc2)cs1 [PCM-0102809, O=C(CCl)Nc1nc(-c2ccc(F)cc2)cs1] | – | – | – | 37 | 21 | -15.559 | -15.559 |
| O=C(CCl)N1CCOCC1 [PCM-0102749, O=C(CCl)N1CCOCC1] | – | – | – | 0 | 0 | -17.466 | -17.466 |
| Cc1ccc(-c2csc(NC(=O)CCl)n2)cc1 [PCM-0102168, Cc1ccc(-c2csc(NC(=O)CCl)n2)cc1] | 0 | -15.760 | -15.760 | 40 | – | – | – |
| N#Cc1cccc(NC(=O)CCl)c1 [PCM-0103033, N#Cc1cccc(NC(=O)CCl)c1] | – | – | – | 0 | 23 | -15.647 | -15.647 |
| O=C(CCl)N1CCN(C(=O)C2CC2)CC1 [PCM-0102970, O=C(CCl)N1CCN(C(=O)C2CC2)CC1] | – | – | – | 7 | 0 | -15.304 | -15.304 |
| Cc1ccc(S(C)(=O)=O)cc1NC(=O)CCl [PCM-0102858, Cc1ccc(S(C)(=O)=O)cc1NC(=O)CCl] | – | – | – | 0 | 0 | -16.253 | -16.253 |
| O=C(CCl)NNC(=O)c1cc2c(s1)CCCC2 [PCM-0102142, O=C(CCl)NNC(=O)c1cc2c(s1)CCCC2] | 100 | -16.868 | -16.868 | 9 | – | – | – |
| N#Cc1ccc(NC(=O)CCl)cc1 [PCM-0102875, N#Cc1ccc(NC(=O)CCl)cc1] | – | – | – | 14 | 8 | -15.678 | -15.678 |
| NC(=O)C1CCN(C(=O)CCl)CC1 [PCM-0102584, NC(=O)C1CCN(C(=O)CCl)CC1] | 0 | -15.701 | -15.701 | 0 | – | – | – |
| CCNC(=O)NC(=O)CCl [PCM-0102654, CCNC(=O)NC(=O)CCl] | 0 | -16.588 | -16.588 | 0 | – | – | – |
| CCN(C(=O)CCl)c1ccc(F)cc1 [PCM-0102900, CCN(C(=O)CCl)c1ccc(F)cc1] | – | – | – | 29 | 0 | -15.837 | -15.837 |
| CC(c1ccccc1)N(C)C(=O)CCl (stereo not shown) [PCM-0102478, CC(c1ccccc1)N(C)C(=O)CCl] | 0 | -16.049 | -16.049 | 10 | – | – | – |
| N#Cc1cccc(CNC(=O)CCl)c1 [PCM-0102936, N#Cc1cccc(CNC(=O)CCl)c1] | – | – | – | 0 | 32 | -16.667 | -16.667 |
| Cc1cc(C)c(C(C)NC(=O)CCl)cc1C (stereo not shown) [PCM-0102879, Cc1cc(C)c(C(C)NC(=O)CCl)cc1C] | – | – | – | 0 | 17 | -16.314 | -16.314 |
| O=C(CCl)Nc1ccc(N2CCCCC2)cc1 [PCM-0102612, O=C(CCl)Nc1ccc(N2CCCCC2)cc1] | 37 | -16.206 | -16.206 | 0 | – | – | – |
| NC(=O)c1c(NC(=O)CCl)sc2c1CCC2 [PCM-0102164, NC(=O)c1c(NC(=O)CCl)sc2c1CCC2] | 0 | -15.581 | -15.581 | 28 | – | – | – |
| O=C(CCl)N1CCOCC1C1CC1 (stereo not shown) [PCM-0102870, O=C(CCl)N1CCOCC1C1CC1] | – | – | – | 17 | 0 | -15.541 | -15.541 |
